As a reminder, the Cmax is the peak of the concentration-time curve.

This is an account of results in PMC9365377 (Clinical Cancer Research, 2022).

The conditions of data set [1]: phase I study; cited from earlier work.
The subject of data set [2] is advanced, previously untreated, unresectable, stage IIIC or IV NRAS-mutant melanoma. The conditions noted are these: cited from earlier work.
In data set [3] the test system is patients with NRAS-mutant melanoma. The data set is described as follows: Phase Ib dose escalation: DLTs in cycle 1, MTD/RP2D determination. Type of data set: in vivo, human. The conditions noted are these: 28-day schedule.
Another data set in a line: Plasma pharmacokinetics. Type of data set: in vivo, human. The conditions noted are these: for Tmax: steady state; for Cmax: human, Cmax at steady state, geometric mean (geometric %CV).
For data set [4] the following is noted: phase I study, 3 weeks on/1 week off; cited from earlier work.
[5] abbreviates: binimetinib 45 mg orally twice daily or dacarbazine 1,000 mg/m^2 intravenously every 3 weeks, 402 patients.
The mark [6] stands for this setting: patients who received prior immunotherapy.
[7] abbreviates: binimetinib 45 mg twice daily + ribociclib 200 mg once daily, 28-day schedule, 11 subjects.

Entries after “also recorded” stand apart in the source; their conditions may differ. Read-outs that look alike come from different tables or passages of the source.

Regarding `Cn1cnc2c(F)c(Nc3ccc(Br)cc3F)c(C(=O)NOCCO)cc21` [binimetinib], the “recommended phase II dose (RP2D), single agent” value in data set [1] is 45 mg twice daily. In addition, in data set [2] (95% CI, 0.47–0.80, one-sided P < 0.001), the “PFS HR, binimetinib vs dacarbazine” value is 0.62. In data set [2] (95% CI, 0.75–1.33, one-sided P = 0.50), the “OS HR, binimetinib vs dacarbazine” value is listed as 1.00. The “median PFS” value is 2.8 months in data set [2] (setting [5]) and 5.5 months in data set [2] (setting [6]). Further, the “RP2D (in the combination)” value in data set [3] (continuous dosing) is reported as 45 mg twice daily. Besides, in the data set “Plasma pharmacokinetics” (binimetinib 45 mg twice daily + ribociclib 200 mg once daily, 28-day schedule, 11 subjects, plasma), the “AUCtau at steady state, geometric mean (geometric %CV)” value was 2,250 (37.7%) hour*ng/mL. The Tmax result in “Plasma pharmacokinetics” (setting [7]) is listed as “about 1.00 hour postdose”.

`CN(C)/N=N/c1[nH]cnc1C(N)=O` [dacarbazine]: the “median PFS” value in data set [2] (setting [5]) is 1.5 months; in data set [2] (setting [6]) it was 1.6 months.

Turning to `CN(C)C(=O)c1cc2cnc(Nc3ccc(N4CCNCC4)cn3)nc2n1C1CCCC1` [ribociclib], the “recommended dose for expansion, single agent” value in data set [4] is 600 mg/day. For the same compound, in data set [3] (21 days on/7 days off), the “RP2D (in the combination)” value was found to be 200 mg once daily. In the data set “Plasma pharmacokinetics” (setting [7]), the Tmax result is listed as “about 2.25 hour postdose”. Besides, the “Dose proportionality of steady-state exposures” value in “Plasma pharmacokinetics” (dose-escalation range of 200 to 600 mg once daily) is “increased greater than dose proportionally; also recorded: greater than dose proportional”. Besides, the highest concentration (Cmax) in the data set “Plasma pharmacokinetics” (plasma, 600 mg ribociclib coadministered with binimetinib, 21-day cycle) is 1910 ng/mL; in the data set “Plasma pharmacokinetics” (plasma, binimetinib 45 mg twice daily + ribociclib 200 mg once daily, 28-day schedule, 11 subjects, plasma) it was 220 ng/mL.
